The values below come from BindingDB's records for doi:10.1021/jm2007062 (Tranzyme Pharma, 2011).

The target in this assay is Growth hormone secretagogue receptor type 1 (Homo sapiens) (UniProt Q92847). Briefly: Displacement of [125I-His9]-ghrelin from human GRLN receptor by radioligand binding assay. On the technique in general: In a radioligand displacement assay an active substance lowers the binding of a labelled ligand.

pKi: −log10 of the molar value.

A word on the pKi: it is −log10 of the Ki, conventionally taken in molar units. Low values mean a large Ki, high ones a small Ki.

Chain of Growth hormone secretagogue receptor type 1 (Homo sapiens) (Q92847 whole entry, looked up): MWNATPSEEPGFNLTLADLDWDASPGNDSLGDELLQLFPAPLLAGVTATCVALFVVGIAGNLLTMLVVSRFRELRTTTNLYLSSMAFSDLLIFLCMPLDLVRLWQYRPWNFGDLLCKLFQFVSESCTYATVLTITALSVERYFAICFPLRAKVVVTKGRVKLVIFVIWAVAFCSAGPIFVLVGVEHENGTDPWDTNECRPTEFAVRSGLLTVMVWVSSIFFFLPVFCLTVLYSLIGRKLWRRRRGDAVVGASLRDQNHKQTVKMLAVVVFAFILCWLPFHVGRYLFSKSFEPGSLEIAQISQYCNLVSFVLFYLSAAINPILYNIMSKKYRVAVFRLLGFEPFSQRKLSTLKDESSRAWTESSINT

With `CC[C@H](C)[C@@H]1NCCCCCCCNC(=O)[C@@H](Cc2ccccc2)NC(=O)[C@@H](C)N(C)C1=O`, the pKi is less than 5.00.

Take `CN1CC(=O)N[C@H](Cc2ccccc2)C(=O)NCCCc2ccccc2OCCN[C@@H](CO)C1=O`: the pKi is less than 5.00. `CN1CC(=O)N[C@H](Cc2ccccc2)C(=O)NCCCc2ccccc2OCCN[C@@H](CCC(=O)O)C1=O` had a pKi of less than 5.00. For `CCC[C@@H]1NCCOc2ccccc2CCCNC(=O)[C@@H](CO)NC(=O)CN(C)C1=O`, the pKi was less than 5.00. As to `CCC[C@@H]1NCCOc2ccccc2CCCNC(=O)[C@@H](CCC(=O)O)NC(=O)CN(C)C1=O`, the pKi was less than 5.00. `CCC[C@@H]1NCCOc2ccccc2CCCNC(=O)[C@@H](CCCN)NC(=O)CN(C)C1=O` gave a pKi of less than 5.00.
